# Data taken from US20120004282A1, “RNA Interference Mediated Inhibition of the Intercellular Adhesion Molecule 1 (ICAM-1) Gene Expression Using Short Interfering Nucleic Acid (siNA)” (Merck Sharp & Dohme Corp,, priority 2009, published 2012).
# [invAb] = inverted abasic unit; m = 2'-O-methyl; r = 2'-OH (RNA); f = 2'-fluoro
# Tested on: ICAM-1 mRNA
# Test: ICAM-1 mRNA knock-down in transfected Calu-1 cells (Taqman RT-PCR)
# Type: cell-based, human
# Conditions: Calu-1 cells, 10 nM siNA, 24 hrs post-transfection, mean ± S.D., relative to non-targeting control
# Method: Calu-1 (human; ATCC cat# HTB-54): Cells were cultured at 37° C. in the presence of 5% CO2 and grown in McCoy's 5a medium supplemented with fetal bovine serum at a final concentration of 10% and 100 μg/mL of streptomycin and 100 U/mL penicillin.
# All transfections were performed using RNAiMax (Invitrogen Cat# 13778-150) as per the manufacturer's instructions.
# Calu-1 cells were plated in all wells of a tissue-culture treated, 96-well plate at final counts of 5,000 cells/well in 100 μL of appropriate culture media. Cells were cultured for 24 hours after plating at 37° C. in the presence of 5% CO2.
# After 24 hours, complexes containing siNA and RNAiMax were created as follows. A solution of RNAiMax diluted 33-fold in OPTI-MEM was prepared. In parallel, solutions of the siNAs for testing were prepared to a final concentration of 120 nM in OPTI-MEM. After incubation of RNAiMax/OPTI-MEM solution at room temperature for 5 min, an equal volume of the siNA solution and the RNAiMax solution were added together for each of the siNAs. […] This solution was incubated at room temperature for 20 minutes. After incubation, 20 uL of the solution was added to each of the relevant wells. The final concentration of siNA in each well was 10 nM and the final volume of RNAiMax in each well was 0.3 uL.
# The time of incubation with the RNAiMax-siNA complexes was 24 hours, unless otherwise indicated. There was no change in media between the transfection and harvesting of the cells unless otherwise indicated.
# Dose response curves were carried out in a similar fashion in 96-well plates, while maintaining a constant amount of RNAiMax in each transfection.
# RNA was extracted from a 96-well plate using the TaqMan® Gene Expression Cells-to-CT™ Kit (Cat# 4399002) with a modified protocol. Briefly, a 60 uL (1 plate) or 110 uL (2 plates) of the Lysis Solution with DNase I was dispensed into each well of the Lysis Buffer Plate (twin.tec full skirt plate). The lysis buffer and stop plates were stored at 4° C. until the cells were washed.
# The plate was spun at 1100 rpm for 5 minutes. The culture medium was aspirated and discarded from the wells of the culture plate. The lysis was performed automatically using a BioMek FX instrument and method. After the Biomek method was completed, the lysis plate was incubated for 2 min. at room temperature. The lysis plate can be stored for 2 hours at 4° C., or at −20° C. or −80° C. for two months.
# Each well of the reverse transcription plate required 10 uL of 2× reverse transcriptase Buffer, 1 uL of 20× reverse transcription enzyme and 2 uL of nuclease-free water. The reverse transcription master mix was prepared by mixing 2× reverse transcription buffer, 20× reverse transcription enzyme mix, and nuclease-free water. 13 uL of the reverse transcription master mix was dispensed into each well of the reverse transcription plate (semi-skirted). A separate reverse transcription plate was prepared for each cell plate. The plate was loaded onto a Biomek NX or Biomek FX Dual-96 and the Biomek method was run. The program is programmed to automatically added 7 uL of lysate from the cell lysis procedure described above into each well of the reverse transcription plate. The plate is sealed and spun on a centrifuge (1000 rpm for 30 seconds) to settle the contents to the bottom of the reverse transcription plate. The plate is placed in a thermocycler at 37° C. for 60 min, 95° C. for 5 min, and 4° C. until the plate is removed from the thermocycler. Upon removal, if not used immediately, the plate was frozen at −20° C.
# A series of probes and primers were used to detect the various mRNA transcripts of the genes of ICAM-1 and ICAM-2 in human cell lines (see Table 2). All the Taqman probes and primers for the experiments here-in described were supplied as pre-validated sets by Applied Biosystems, Inc., (see Table 2). The assays were performed on an ABI 7900 instrument, according to the manufacturer's instructions. […]
row,Substance,% KD Human
1,"29281-DC: siNA duplex, ICAM-1 target site 1650 (h); sense B cAGuGAcuGucAcucGAGA TTB; antisense UCUcGAGuGAcAGucAcuGUU (sense CAGUGACUGUCACUCGAGATT; antisense UCUCGAGUGACAGUCACUGUU; sense: DNA at AGT, 2'-fluoro at CU, [invAb] at 5' end, 3' end, backbone not given here; antisense: sugars from the 5' end rrrfmmmfmmfmmffmffmmm, backbone not given here)",45 ± 21%
2,"29283-DC: siNA duplex, ICAM-1 target site 1811 (h); sense B cucAGcAcGuAccucuAuA TTB; antisense UAUAGAGGuAcGuGcuGAGUU (sense CUCAGCACGUACCUCUAUATT; antisense UAUAGAGGUACGUGCUGAGUU; sense: DNA at AGT, 2'-fluoro at CU, [invAb] at 5' end, 3' end, backbone not given here; antisense: sugars from the 5' end rrrmmmmmfmfmfmffmmmmm, backbone not given here)",63 ± 8%
3,"29289-DC: siNA duplex, ICAM-1 target site 2152 (h); sense B GGAGcAAGAcucAAGAcAu TTB; antisense AUGucuuGAGucuuGcuccUU (sense GGAGCAAGACUCAAGACAUTT; antisense AUGUCUUGAGUCUUGCUCCUU; sense: DNA at AGT, 2'-fluoro at CU, [invAb] at 5' end, 3' end, backbone not given here; antisense: sugars from the 5' end rrrffffmmmffffmffffmm, backbone not given here)",78 ± 15%
4,"29290-DC: siNA duplex, ICAM-1 target site 1226 (h); sense B cAGAcAGuGAccAucuAcA TTB; antisense UGUAGAuGGucAcuGucuGUU (sense CAGACAGUGACCAUCUACATT; antisense UGUAGAUGGUCACUGUCUGUU; sense: DNA at AGT, 2'-fluoro at CU, [invAb] at 5' end, 3' end, backbone not given here; antisense: sugars from the 5' end rrrmmmfmmffmffmfffmmm, backbone not given here)",47 ± 18%
5,"29291-DC: siNA duplex, ICAM-1 target site 2120 (h); sense B GAucuGuAGucAcAuGAcu TTB; antisense AGUcAuGuGAcuAcAGAucUU (sense GAUCUGUAGUCACAUGACUTT; antisense AGUCAUGUGACUACAGAUCUU; sense: DNA at AGT, 2'-fluoro at CU, [invAb] at 5' end, 3' end, backbone not given here; antisense: sugars from the 5' end rrrfmfmfmmffmfmmmffmm, backbone not given here)",84 ± 7%
6,"29292-DC: siNA duplex, ICAM-1 target site 863 (h); sense B GccAAuuucucGuGccGcA TTB; antisense UGCGGcAcGAGAAAuuGGcUU (sense GCCAAUUUCUCGUGCCGCATT; antisense UGCGGCACGAGAAAUUGGCUU; sense: DNA at AGT, 2'-fluoro at CU, [invAb] at 5' end, 3' end, backbone not given here; antisense: sugars from the 5' end rrrmmfmfmmmmmmffmmfmm, backbone not given here)",76 ± 3%
7,"48697-DC: siNA duplex, ICAM-1 target site 1641 (m); sense B GcucAGGAGGAGGccAuAA TTB; antisense UUAuGGccuccuccuGAGcUU (sense GCUCAGGAGGAGGCCAUAATT; antisense UUAUGGCCUCCUCCUGAGCUU; sense: DNA at AGT, 2'-fluoro at CU, [invAb] at 5' end, 3' end, backbone not given here; antisense: sugars from the 5' end rrrfmmfffffffffmmmfmm, backbone not given here)",14 ± 11%
8,"48698-DC: siNA duplex, ICAM-1 target site 1611 (m); sense B AGAAAGAucAGGAuAuAcA TTB; antisense UGUAuAuccuGAucuuucuUU (sense AGAAAGAUCAGGAUAUACATT; antisense UGUAUAUCCUGAUCUUUCUUU; sense: DNA at AGT, 2'-fluoro at CU, [invAb] at 5' end, 3' end, backbone not given here; antisense: sugars from the 5' end rrrmfmffffmmfffffffmm, backbone not given here)",34 ± 6%
9,"48699-DC: siNA duplex, ICAM-1 target site 668 (m); sense B GcuGGcAuuGuucucuAAu TTB; antisense AUUAGAGAAcAAuGccAGcUU (sense GCUGGCAUUGUUCUCUAAUTT; antisense AUUAGAGAACAAUGCCAGCUU; sense: DNA at AGT, 2'-fluoro at CU, [invAb] at 5' end, 3' end, backbone not given here; antisense: sugars from the 5' end rrrmmmmmmfmmfmffmmfmm, backbone not given here)",25 ± 9%
10,"48700-DC: siNA duplex, ICAM-1 target site 1549 (m); sense B uGccAGuAcuGcuGGucAu TTB; antisense AUGAccAGcAGuAcuGGcAUU (sense UGCCAGUACUGCUGGUCAUTT; antisense AUGACCAGCAGUACUGGCAUU; sense: DNA at AGT, 2'-fluoro at CU, [invAb] at 5' end, 3' end, backbone not given here; antisense: sugars from the 5' end rrrmffmmfmmfmffmmfmmm, backbone not given here)",13 ± 5%
11,"48701-DC: siNA duplex, ICAM-1 target site 1505 (m); sense B AGuAcuGuAccAcucucAA TTB; antisense UUGAGAGuGGuAcAGuAcuUU (sense AGUACUGUACCACUCUCAATT; antisense UUGAGAGUGGUACAGUACUUU; sense: DNA at AGT, 2'-fluoro at CU, [invAb] at 5' end, 3' end, backbone not given here; antisense: sugars from the 5' end rrrmmmmfmmfmfmmfmffmm, backbone not given here)",3 ± 17%
12,"48702-DC: siNA duplex, ICAM-1 target site 990 (m); sense B AccuuAAcAGucuAcAAcu TTB; antisense AGUuGuAGAcuGuuAAGGuUU (sense ACCUUAACAGUCUACAACUTT; antisense AGUUGUAGACUGUUAAGGUUU; sense: DNA at AGT, 2'-fluoro at CU, [invAb] at 5' end, 3' end, backbone not given here; antisense: sugars from the 5' end rrrfmfmmmffmffmmmmfmm, backbone not given here)",19 ± 6%
13,"48703-DC: siNA duplex, ICAM-1 target site 394 (m); sense B ccGuGuAuucGuuuccGGA TTB; antisense UCCGGAAAcGAAuAcAcGGUU (sense CCGUGUAUUCGUUUCCGGATT; antisense UCCGGAAACGAAUACACGGUU; sense: DNA at AGT, 2'-fluoro at CU, [invAb] at 5' end, 3' end, backbone not given here; antisense: sugars from the 5' end rrrmmmmmfmmmfmfmfmmmm, backbone not given here)",30 ± 15%
